According to patent US8729075B2, “Glucosylceramide synthase inhibition for the treatment of collapsing glomerulopathy and other glomerular disease” (Genzyme Corporation, priority 2008, dated 2014):
Read-outs that look alike come from different tables or passages of the source.

System: GM3
Assay: GM3 Elisa assay
Assay type: cell-based
Conditions: B16-FO cells, 2 days incubation, read-out: IC50_uM_Mean
Description: B16-FO cells from ATCC (American Tissue Culture Collection) were grown in DMEM media (ATCC) with 10% Fetal Bovine Serum (Hyclone) and Pen/Step/Glutamine (Biowhittaker). 4000 cells per well were plated on collagen coated plates (BD) and allowed to attach for 6 hours in an incubator (37 degrees, 5% CO2). After 6 hours the compounds and controls were added to the wells, the plates mixed and returned to the incubator for 2 days. Day of assay the cells were fixed for 20 minutes with 1% formaldehyde and then washed with Tris Buffered Saline (TBS) 3 times, 150 μl of TBS was left in the wells and 50 μl of goat serum (Invitrogen) was added, the plates mixed and incubated for 1 hour at room temperature. The plates were flicked and the cells incubated with the monoclonal Antibody to GM3 (NeuAc) (Cosmo) for 45 minutes as room temperature. The plates were then washed 3 times with TBS, leaving 150 μl of TBS in the wells and Peroxidase AffinPure F (ab′) 2 frag Gt Anti-mouse IgM, μ Chain Specific (Jackson Immno Research) was added in 50 μl, the plates mixed and incubated for 45 minutes at room temperature. The plates were washed 3 times with TBS, flicked and blotted and 100 μl of Quantablu (Pierce) was added to the wells and incubated for 1 hour then read on a Fluorometer at Ex 325 and Em 420. The data was then analyzed using standard programs.

Row | Structure (SMILES) | IC50 (48 h, Table 3) [nM] | also measured
1 | COc1ccc(OCCC(=O)N[C@H](CN2CCCC2)[C@@H](O)c2ccc3c(c2)OCCO3)cc1 [Compound 676] | 3000 to 10000 | –
2 | COC(=O)CO[C@H](c1ccc2c(c1)OCO2)[C@@H](CN1CCCC1)NC(=O)CCOc1ccc(OC)cc1 [Compound 275] | – | IC50 (48 h, Table 2): ≤ 100 nM
3 | CCCCCCCC(=O)N[C@H](CN1CCC(C)(C)C1)[C@@H](O)c1ccc2c(c1)OCCO2 [Compound 521] | 3000 to 10000 | –
4 | COc1ccc(C(=O)CCCCCC(=O)N[C@H](CN2CCC(C)(C)C2)[C@@H](O)c2ccc3c(c2)OCCO3)cc1 [Compound 520] | 1000 to 3000 | –
5 | O=C(CCCCCC1CCOCC1)N[C@H](CN1CC[C@@H](F)C1)[C@H](O)c1cccc(OCc2ccccc2)c1 [Compound 574] | 100 to 1000 | –
6 | Cc1nccn1C[C@@H](NC(=O)CCCCCC(=O)c1ccc(F)cc1)[C@H](O)c1ccc2c(c1)OCCO2 [Compound 569] | 3000 to 10000 | –
7 | COC[C@@H]1CCCN1CC(NC(=O)CCCCCC(=O)c1ccc(OC)cc1)[C@@H](O)c1ccc2c(c1)OCCO2 (stereo partly shown) [Compound 533] | 100 to 1000 | –
8 | CC(=O)CCc1ccc(OCCC(=O)N[C@H](CN2CCCC2)[C@H](O)c2ccc3c(c2)OCCO3)cc1 [Compound 193, N-((1R,2R)-1-(2,3-dihydrobenzo[b][1,4]dioxin-6-yl)-1-hydroxy-3-(pyrrolidin-1-yl)propan-2-yl)-3-(4-(3-oxobutyl)phenoxy)propanamide(2R,3R)-2,3-dihydroxysuccinate] | – | IC50 (Table 1): 100 to 1000 nM
9 | CCCCCCCC(=O)NC(CN1[C@H](C)CC[C@H]1C)[C@H](O)c1ccc2c(c1)OCCO2 (stereo partly shown) [Compound 549] | 3000 to 10000 | –
10 | COc1ccc(OCCC(=O)N[C@@H](CN2CCCC2)[C@H](O)c2ccc3c(c2)OCCO3)cc1 [Compound 675] | 3000 to 10000 | –
11 | COc1ccc(OCCC(=O)NC(CN2[C@H](C)CC[C@H]2C)[C@H](O)c2ccc3c(c2)OCCO3)cc1 (stereo partly shown) [Compound 550] | 3000 to 10000 | –
12 | COc1ccc(OCCC(=O)N[C@H](CN2CCCC2)[C@H](O)c2ccc3c(c2)OCCO3)cc1 [Compound 61, N-((1R,2R)-1-(2,3-dihydrobenzo[β][1,4]dioxin-6-yl)-1-hydroxy-3-(pyrrolidin-1-yl)propan-2-yl)-3-(4-methoxyphenoxy)propanamide] | – | IC50 (48 h, Table 1): ≤ 100 nM
13 | COc1ccc(OCCC(=O)N[C@H](CN2C(C)CCCC2C)[C@@H](O)c2ccc3c(c2)OCCO3)cc1 (stereo partly shown) [Compound 598] | 3000 to 10000 | –
14 | COc1ccc(OCCC(=O)N[C@@H](CN2CCCC2)[C@@H](O)c2ccc3c(c2)OCCO3)cc1 [Compound 674] | 3000 to 10000 | –
15 | Cc1ccc(C(=O)CCC(=O)N[C@H](CC2CCCC2)[C@H](O)c2ccc3c(c2)CCCC3)cc1 [Compound 264] | – | IC50 (48 h, Table 2): ≤ 100 nM
16 | CCCNC[C@@H](NC(=O)CCCCCC(=O)c1ccc(OC)cc1)[C@H](O)c1ccc2c(c1)OCCO2 [Compound 467] | 100 to 1000 | –

The next lines start with results.

Row | IC50 (48 h, Table 3) [nM] | Structure (SMILES) | also measured
17 | 1000 to 3000 | COc1ccc(OCCC(=O)N[C@H](CN2CCC[C@H]2C)[C@H](O)c2ccc3c(c2)OCCO3)cc1 [Compound 528] | –
18 | 3000 to 10000 | COC[C@H]1CCCN1C[C@@H](NC(=O)CCOc1ccc(OC)cc1)[C@H](O)c1ccc2c(c1)OCCO2 [Compound 538] | –
19 | ≤ 100 | COc1ccc(C(=O)CCCCCC(=O)N[C@H](CN2CCC[C@@H]2C)[C@H](O)c2ccc3c(c2)OCCO3)cc1 [Compound 525] | –
20 | 1000 to 3000 | COc1ccc(C(=O)CCCCCC(=O)NC(CN2[C@H](C)CC[C@H]2C)[C@H](O)c2ccc3c(c2)OCCO3)cc1 (stereo partly shown) [Compound 548] | –
21 | 1000 to 3000 | COc1ccc([C@@H](O)[C@@H](CN2CCCC2)NC(=O)CCCCCC(C)=O)cc1 [Compound 664] | –
22 | 100 to 1000 | COc1ccc(OCCC(=O)N[C@H](CN2CCC[C@@H]2C)[C@H](O)c2ccc3c(c2)OCCO3)cc1 [Compound 526] | –
23 | 100 to 1000 | O=C(CCCCS(=O)(=O)C12CC3CCCC(C1)C(C3)C2)N[C@H](CN1CCCC1)[C@@H](O)c1ccc2c(c1)OCCO2 (stereo partly shown) [Compound 560] | –
24 | 100 to 1000 | O=C(CCCCOCC(F)(F)F)N[C@H](CN1CCCC1)[C@H](O)c1ccc(CCc2ccccc2)cc1 [Compound 647] | –
25 | 100 to 1000 | CCCCOc1ccc([C@@H](O)[C@@H](CN2CC[C@@H](F)C2)NC(=O)CCCCCCCOC)cc1 [Compound 584] | –
26 | 3000 to 10000 | COc1ccc(CCCCN(C(=O)CCCCC(=O)c2ccc(OC)cc2)[C@H](CN2CCCC2)[C@H](O)c2ccc(O)cc2)cc1 [Compound 429] | –
27 | ≤ 100 | COc1ccc(C(=O)CCCCCC(=O)N[C@H](CN2CCC[C@H]2C)[C@H](O)c2ccc3c(c2)OCCO3)cc1 [Compound 529] | –
28 | 3000 to 10000 | CCCCCCCCCCCCCCCC(=O)N[C@H](CN(C)Cc1ccccc1)[C@@H](O)c1ccc2c(c1)OCCO2 [Compound 682] | –
29 | 3000 to 10000 | N#CCCCCCC(=O)C[C@H](CN1CCCC1)[C@H](O)c1ccc2c(c1)OCCO2 [Compound 632] | –
30 | 100 to 1000 | COc1ccc(C(=O)CCCCCC(=O)N[C@H](CNC(C)C)[C@@H](O)c2ccc3c(c2)OCCO3)cc1 [Compound 465] | –
31 | ≤ 100 | COCCOc1ccc(C(O)[C@@H](CN2CCCC2)NC(=O)CCCCC(=O)c2ccc(OC)cc2)cc1 (stereo partly shown) [Compound 417] | –
32 | 100 to 1000 | COCOc1ccc(C(=O)CCCC(=O)N[C@H](CN2CC[C@H](O)C2)[C@H](O)c2ccc(OC(C)C)cc2)cc1 [Compound 737] | –
33 | 1000 to 3000 | CCCCOc1ccc([C@@H](O)[C@@H](CN2CC[C@@H](O)C2)NC(=O)CCCCCOCCF)cc1 [Compound 661] | –
34 | 1000 to 3000 | CCCCCCCC(=O)N[C@H](CN1CCC[C@@H]1C)[C@H](O)c1ccc2c(c1)OCCO2 [Compound 527] | –
35 | 3000 to 10000 | Cc1noc(CCCCC(=O)N[C@@H](CC2CCCC2)[C@H](O)c2ccc3c(c2)OCCO3)n1 [Compound 652] | –
36 | 100 to 1000 | COc1ccc(C(=O)CCCCCC(=O)N[C@H](CN2CC[C@@H](O)C2)[C@@H](O)c2ccc3c(c2)OCCO3)cc1 [Compound 518] | –
37 | ≤ 100 | COc1ccc(C(=O)CCCCC(=O)NC(CN2CCCC2)[C@H](O)c2ccc(OCCC3CCCCC3)cc2)cc1 (stereo partly shown) [Compound 419] | –
